ChEMBL document CHEMBL1914347, “Palmerolide macrolides from the Antarctic tunicate Synoicum adareanum” (Bioorg Med Chem, 2011)

What was measured:
[1] = Inhibition of bovine brain Vo domain of V-ATPase activity assessed as ATP-mediated proton translocation by spectrophotometric analysis; parameters: species or system Bos taurus
UACC-62 = assay: Cytotoxicity against human UACC62 cells after 48 hrs by SRB assay; format: functional, cell-based; details: UACC-62, 48 h
[2] = Ratio of IC50 for bovine brain Vo domain of V-ATPase activity to IC50 for human UACC62 cells; parameters: species or system UACC-62
[3] = Cytotoxicity against human NCI60 cells; format: functional; details: read-out: LC50 (the source's name)

Q: What does the source list for `CC(C)=CC(=O)N/C=C/C(C)=C\[C@@H](C)[C@H]1C/C(C)=C/C=C/CC[C@H](OC(N)=O)[C@@H](O)/C=C/[C@@H](O)CCC/C=C/C(=O)O1` [PALMEROLIDE G]?
A: IC50 [1]: 0.007 µM; IC50 (UACC-62): 1.21 µM; Ratio IC50 [2]: 0.006

Q: What does the source list for `C/C(C=O)=C\[C@@H](C)[C@H]1C/C(C)=C/C=C/CC[C@H](OC(N)=O)[C@@H](O)/C=C/[C@@H](O)CCC/C=C/C(=O)O1` [PALMEROLIDE E]?
A: IC50 [1]: > 10000 µM; IC50 (UACC-62): 5000 µM; Ratio IC50 [2]: >2

Q: Which results are given for `C=C(C)C/C(C)=C\C(=O)N/C=C/C(C)=C/[C@@H](C)[C@H]1C/C(C)=C/C=C/CC[C@H](OC(N)=O)[C@@H](O)/C=C/[C@@H](O)CCC/C=C/C(=O)O1` [PALMEROLIDE D]?
A: IC50 [1]: 0.025 µM; IC50 (UACC-62): 0.002 µM; Ratio IC50 [2]: 12.5

Q: For `C=C(C)CC(=O)N/C=C/C(C)=C/[C@@H](C)[C@H]1C/C(C)=C/C=C/CC[C@H](OC(N)=O)[C@@H](O)/C=C/[C@@H](O)CCC/C=C/C(=O)O1` [PALMEROLIDE F], which IC50 [1] is on record?
A: 0.063 µM

Q: And the IC50 (UACC-62)?
A: 0.758 µM

Q: And the “Ratio IC50” value [2]?
A: 0.083

Q: What does the source list for `CC(C)=CC(=O)N/C=C/C(C)=C/[C@@H](C)[C@H]1C/C(C)=C/C=C/CC[C@H](OC(N)=O)[C@@H](O)/C=C/[C@@H](O)CCC/C=C/C(=O)O1` [PALMEROLIDE A]?
A: IC50 [1]: 0.002 µM; IC50 (UACC-62): 0.024 µM; Ratio IC50 [2]: 0.083; CC50 [3]: 0.018 µM
